{
  "source": "patent US10927075B2",
  "about": "“Compositions and methods relating to the treatment of cancer, autoimmune disease, and neurodegenerative disease” (THE JACKSON LABORATORY, priority 2014, dated 2021)",
  "molecular_target": "RAD51 (Mus musculus, UniProt Q08297)",
  "sequence (Q08297 whole entry)": "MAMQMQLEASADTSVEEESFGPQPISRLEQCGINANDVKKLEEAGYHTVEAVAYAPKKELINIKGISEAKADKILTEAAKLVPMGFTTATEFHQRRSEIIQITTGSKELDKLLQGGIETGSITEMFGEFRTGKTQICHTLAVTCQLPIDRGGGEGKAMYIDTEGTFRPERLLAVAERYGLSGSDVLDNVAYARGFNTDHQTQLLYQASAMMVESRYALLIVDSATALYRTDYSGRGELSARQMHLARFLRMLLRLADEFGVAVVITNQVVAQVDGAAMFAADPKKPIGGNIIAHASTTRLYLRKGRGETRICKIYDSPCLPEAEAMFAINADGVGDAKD",
  "test": "RAD51 nucleocytoplasmic distribution by cell fractionation and Western blotting",
  "type": "cell-based",
  "design": "quantitation of RAD51 expression in nuclear and cytoplasmic fractions as determined by Western Blot; endogenous in cells",
  "procedure": "It was next tested whether C-1523 would affect RAD51 localization or DNA damage-induced focus formation. Primary mouse B-cells were treated with 100 nM C-1523 (or vehicle control) and given either 0 or 2.5Gy ionizing irradiation. Following recovery in cell culture, cells were fixed and stained for immunofluorescence imaging to measure subcellular localization of RAD51. […] To confirm the effect of C-1523 on RAD51 subcellular localization, nucleocytoplasmic distribution was independently measured following C-1523 treatment by cell fractionation and Western blotting (FIG. 13D; Supplemental FIG. 2). […] This effect on subcellular localization was specific to RAD51, as localization of NF-kB, which undergoes nuclear translocation and homing to genomic target sites after cell stimulation, was unaffected by C-1523 exposure (FIGS. 13E-13F).",
  "data": [
    {"smiles": "CC(=O)Nc1ccc(/C=C/c2ccc(NC(=S)NC(C)C)cc2S(=O)(=O)O)c(S(=O)(=O)O)c1", "note": "[C-1523, (E)-5-acetamido-2-(4-(3-isopropylthioureido)-2-sulfonatostyryl)benzenesulfonate]", "values": [
      {"measurement": "fraction of RAD51 localized to the nucleus, following irradiation", "result": "small, but measurable reduction"}
    ]}
  ]
}
